Data from PubChem BioAssay AID1963826 (Molecular Pharmacology Branch, DTP, NCI, 2024).

Test system: 926638-142-R-J1-PDC complex spheroid viability
Assay: Anticancer human tumor 926638-142-R-J1-PDC patient-derived endometrial carcinoma cell line growth inhibition [POLQ]
Settings: for IC50: curve of first compound; for viability, T/C: stronger effect = lower value
How it was run: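 Complex spheroid viability model combining PDC tumour cells with endothelial (HUVEC) and MSC stromal cells. Novobiocin, ART-558 or RP6685 were tested singly and in combination with standard and investigational anticancer drugs. Each was titrated in half-log steps from near clinical Cmax, or from 10 microM where Cmax was unknown.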

[1] = second compound 0.0316 µM, first compound 0.0316 µM
[2] = second compound 0.0316 µM, first compound 0.1 µM
[3] = second compound 0.0316 µM, first compound 0.316 µM
[4] = second compound 0.0316 µM, first compound 1 µM
[5] = second compound 0.1 µM, first compound 0.0316 µM
[6] = second compound 0.1 µM, first compound 0.1 µM
[7] = second compound 0.1 µM, first compound 0.316 µM
[8] = second compound 0.1 µM, first compound 1 µM
[9] = second compound 0.316 µM, first compound 0.0316 µM
[10] = second compound 0.316 µM, first compound 0.1 µM
[11] = second compound 0.316 µM, first compound 0.316 µM
[12] = second compound 0.316 µM, first compound 1 µM
[13] = second compound 1 µM, first compound 0.0316 µM
[14] = second compound 1 µM, first compound 0.1 µM
[15] = second compound 1 µM, first compound 0.316 µM
[16] = second compound 1 µM, first compound 1 µM
[17] = second compound 3.16 µM, first compound 0.0316 µM
[18] = second compound 3.16 µM, first compound 0.1 µM
[19] = second compound 3.16 µM, first compound 0.316 µM
[20] = second compound 3.16 µM, first compound 1 µM
[21] = second compound 10 µM, first compound 0.0316 µM
[22] = second compound 10 µM, first compound 0.1 µM
[23] = second compound 10 µM, first compound 0.316 µM
[24] = second compound 10 µM, first compound 1 µM
[25] = second compound 0.0316 µM, first compound 3.16 µM
[26] = second compound 0.0316 µM, first compound 10 µM
[27] = second compound 0.1 µM, first compound 3.16 µM
[28] = second compound 0.1 µM, first compound 10 µM
[29] = second compound 0.316 µM, first compound 3.16 µM
[30] = second compound 0.316 µM, first compound 10 µM
[31] = second compound 1 µM, first compound 3.16 µM
[32] = second compound 1 µM, first compound 10 µM
[33] = second compound 3.16 µM, first compound 3.16 µM
[34] = second compound 3.16 µM, first compound 10 µM
[35] = second compound 10 µM, first compound 3.16 µM
[36] = second compound 10 µM, first compound 10 µM
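Also: spheroids exposed to drugs for one week before readout.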
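For viability, T/C in this document: percent viability relative to DMSO vehicle control wells set as 100%.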

`C=CCn1c(=O)c2cnc(Nc3ccc(N4CCN(C)CC4)cc3)nc2n1-c1cccc(C(C)(C)O)n1` + Nc1ccc(C#CCN(C(=O)Cc2ncc(C(F)(F)F)cc2C(F)(F)F)c2ccc(F)cc2)nn1 was tested, and the IC50 (second compound 0.0316 µM) was 0.584 µM, the IC50 (second compound 0.1 µM) was 0.626 µM and the IC50 (second compound 0.316 µM) was 0.67 µM. For the same compound, the IC50 (second compound 1 µM) was 0.457 µM, the IC50 (second compound 3.16 µM) was 0.618 µM and the IC50 (second compound 10 µM) was 0.263 µM. The viability, T/C (second compound 0.0316 µM, first compound 0.00316 µM) was 100%, the viability, T/C (second compound 0.0316 µM, first compound 0.01 µM) was 97.9% and the viability, T/C [1] was 80.7%. The viability, T/C [2] was 63%, the viability, T/C [3] was 57.5% and the viability, T/C [4] was 44.9%. The viability, T/C (second compound 0.1 µM, first compound 0.00316 µM) was 122%, the viability, T/C (second compound 0.1 µM, first compound 0.01 µM) was 90.6% and the viability, T/C [5] was 92.3%. For the same compound, the viability, T/C [6] was 81.3%, the viability, T/C [7] was 56.1% and the viability, T/C [8] was 43.3%. It also gave a viability, T/C (second compound 0.316 µM, first compound 0.00316 µM) of 109%, a viability, T/C (second compound 0.316 µM, first compound 0.01 µM) of 95.7% and a viability, T/C [9] of 95%. The viability, T/C [10] was 80.5%, the viability, T/C [11] was 64.6% and the viability, T/C [12] was 42%. For the same compound, the viability, T/C (second compound 1 µM, first compound 0.00316 µM) was 116%, the viability, T/C (second compound 1 µM, first compound 0.01 µM) was 94.4% and the viability, T/C [13] was 80.5%. It also gave a viability, T/C [14] of 72.7%, a viability, T/C [15] of 57.1% and a viability, T/C [16] of 37.6%. It also gave a viability, T/C (second compound 3.16 µM, first compound 0.00316 µM) of 103%, a viability, T/C (second compound 3.16 µM, first compound 0.01 µM) of 88.9% and a viability, T/C [17] of 80%. It also gave a viability, T/C [18] of 84.4%, a viability, T/C [19] of 60.2% and a viability, T/C [20] of 40.6%. It also gave a viability, T/C (second compound 10 µM, first compound 0.00316 µM) of 76.5%, a viability, T/C (second compound 10 µM, first compound 0.01 µM) of 95.2% and a viability, T/C [21] of 88.9%. For the same compound, the viability, T/C [22] was 67.3%, the viability, T/C [23] was 49.1% and the viability, T/C [24] was 42.6%.
`CC1COCCN1c1cc(C2(S(C)(=N)=O)CC2)nc(-c2ccnc3[nH]ccc23)n1` (stereo unspecified) + Nc1ccc(C#CCN(C(=O)Cc2ncc(C(F)(F)F)cc2C(F)(F)F)c2ccc(F)cc2)nn1 was tested, and the IC50 (second compound 0.0316 µM) was 5.2 µM, the IC50 (second compound 0.1 µM) was 4.68 µM and the IC50 (second compound 0.316 µM) was 5.47 µM. For the same compound, the IC50 (second compound 1 µM) was 4.85 µM, the IC50 (second compound 3.16 µM) was 3.93 µM and the IC50 (second compound 10 µM) was 5.63 µM. The viability, T/C [1] was 111%, the viability, T/C [2] was 108% and the viability, T/C [3] was 93.2%. It also gave a viability, T/C [4] of 82.3%, a viability, T/C [25] of 71% and a viability, T/C [26] of 28.3%. The viability, T/C [5] was 111%, the viability, T/C [6] was 110% and the viability, T/C [7] was 97.4%. The viability, T/C [8] was 77.9%, the viability, T/C [27] was 63.6% and the viability, T/C [28] was 28.9%. The viability, T/C [9] was 99.4%, the viability, T/C [10] was 104% and the viability, T/C [11] was 91.9%. For the same compound, the viability, T/C [12] was 84.3%, the viability, T/C [29] was 65.9% and the viability, T/C [30] was 32.8%. It also gave a viability, T/C [13] of 103%, a viability, T/C [14] of 106% and a viability, T/C [15] of 90.4%. It also gave a viability, T/C [16] of 80%, a viability, T/C [31] of 64.4% and a viability, T/C [32] of 28.9%. For the same compound, the viability, T/C [17] was 100%, the viability, T/C [18] was 98.9% and the viability, T/C [19] was 99.5%. For the same compound, the viability, T/C [20] was 92.6%, the viability, T/C [33] was 54.7% and the viability, T/C [34] was 29.7%. For the same compound, the viability, T/C [21] was 98.5%, the viability, T/C [22] was 90.6% and the viability, T/C [23] was 87.9%. For the same compound, the viability, T/C [24] was 90.9%, the viability, T/C [35] was 70.2% and the viability, T/C [36] was 29.8%.
`CCCS(=O)(=O)Nc1ccc(F)c(C(=O)c2c[nH]c3ncc(-c4ccc(Cl)cc4)cc23)c1F` + Nc1ccc(C#CCN(C(=O)Cc2ncc(C(F)(F)F)cc2C(F)(F)F)c2ccc(F)cc2)nn1 was tested, and the IC50 (second compound 0.0316 µM) was 7.88 µM, the IC50 (second compound 0.1 µM) was greater than 10 µM and the IC50 (second compound 0.316 µM) was 8.9 µM. It also gave an IC50 (second compound 1 µM) of 8.58 µM, an IC50 (second compound 3.16 µM) of 8.43 µM and an IC50 (second compound 10 µM) of 6.87 µM. It also gave a viability, T/C [1] of 99.5%, a viability, T/C [2] of 90.5% and a viability, T/C [3] of 103%. It also gave a viability, T/C [4] of 85.7%, a viability, T/C [25] of 80% and a viability, T/C [26] of 42.2%. It also gave a viability, T/C [5] of 111%, a viability, T/C [6] of 85.7% and a viability, T/C [7] of 103%. For the same compound, the viability, T/C [8] was 81.8%, the viability, T/C [27] was 94.5% and the viability, T/C [28] was 50.9%. It also gave a viability, T/C [9] of 90.4%, a viability, T/C [10] of 97.9% and a viability, T/C [11] of 100%. It also gave a viability, T/C [12] of 99.9%, a viability, T/C [29] of 87.1% and a viability, T/C [30] of 45.3%. The viability, T/C [13] was 105%, the viability, T/C [14] was 92.1% and the viability, T/C [15] was 93.3%. It also gave a viability, T/C [16] of 92.8%, a viability, T/C [31] of 80.4% and a viability, T/C [32] of 44.8%. It also gave a viability, T/C [17] of 89.8%, a viability, T/C [18] of 83.6% and a viability, T/C [19] of 90.5%. For the same compound, the viability, T/C [20] was 87.8%, the viability, T/C [33] was 88.6% and the viability, T/C [34] was 43.4%. The viability, T/C [21] was 87.9%, the viability, T/C [22] was 93.5% and the viability, T/C [23] was 91.3%. For the same compound, the viability, T/C [24] was 82.6%, the viability, T/C [35] was 71.2% and the viability, T/C [36] was 40.1%.
